Laboratory results as given in patent publication US11420922B2, “Hydroxylated tropolone inhibitors of nucleotidyl transferases in herpesvirus and Hepatitis B and uses therefor” (Saint Louis University, priority 2015, dated 2022).
Entries after “also recorded” stand apart in the source; their conditions may differ.

Assays:
[1] = Cytotoxicity reported with the HBV assay (Table 4); format: cell-based; conditions: human, hepatoma cells; read-out: CC50 (HBV assay table)
In short: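 Cells exposed 24 h to compounds at 0.78–100 μM in 1% DMSO, under the same conditions as the viral replication assays.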

[2] = Mouse liver microsome assay; format: in vitro ADME; conditions: 1 μM in mouse liver microsomes
In short: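 Mouse liver microsomes at 0.25 μM P450 final in 0.1 M potassium phosphate with 3.3 mM MgCl and 1 μM compound, prewarmed 5 min at 37 °C. Reaction started with NADPH (1.2 mM final); aliquots at 0, 5, 10, 20 and 30 min quenched in cold acetonitrile with EDTA or EGTA, analysed by LC/MS/MS.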

[3] = Quantitative Vero cell toxicity (MTT); format: cell-based; conditions: African green monkey, Vero cells
Protocol: Qualitative assessments of cytotoxicity were done visually by inspecting the cells in the primary screening assays. For the quantitative assays, cells were plated in 96-well plates at 1.0×10^4 per well. The next day the compounds were added at 0.78 to 100 μM in a final concentration of 1% (v/v) DMSO, and the cells were incubated for 24 hours under conditions identical to those employed for the viral replication inhibition assays. Mitochondrial toxicity was measured by incubating the cells with 0.25 mg/mL thiazolyl blue tetrazolium bromide (MTT, Sigma Aldrich Chemical Co.), the cultures were incubated for 60 min, metabolites were solubilized in acidic isopropanol, and absorbance was read at 570 nm. CC50 values were calculated by non-linear curve fitting using GraphPad Prism.
Quantitative toxicity measurements were conducted for all compounds that suppressed HSV replication by >2 log10 at 5 μM plus a number of compounds with lesser inhibitory activity for comparison. Toxicity was assessed by […]. Cells were plated in 96-well plates at 1.0×10^4 per well. The next day compound was added in concentrations ranging from 0.78 to 100 μM in a final concentration of 1% (v/v) DMSO. The cells were incubated for 24 h under conditions identical to those employed for the viral replication inhibition assays, and then mitochondrial activity was measured with the MTT assay (Sigma Aldrich) according to the manufacturer's instructions. Percent viability was determined for each compound concentration from the […], and then 50% cytotoxic concentrations (CC50) values were calculated by non-linear curve fitting using GraphPad Prism. Consistent with the subjective assessments of toxicity, all compounds selected for quantitative toxicity assessment had CC50 values≥50 μM under these conditions (Table 1).

HSV-1 = experiment: Anti-HSV-1 replication assay in Vero cells, titers by plaque assay; format: cell-based, herpes simplex virus 1; conditions: Human alphaherpesvirus 1, Vero, 24 h
In short: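 Vero monolayers infected with clinical HSV-1 or HSV-2 isolates at MOI 0.1 with compound present (50 and 5 μM final), 1 h at 37° C, then compound in DMEM for another 23 h. Yield titered by plaque assay on Vero cells; EC50 by nonlinear fit of serial dilutions starting at 50 μM, DMSO controls.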

HSV-2 [4] = experiment: Anti-HSV-2 replication assay in Vero cells, titers by plaque assay; format: cell-based, herpes simplex virus 2
HSV = experiment: Anti-HSV SAR summary, HSV type not separated; format: cell-based, herpes simplex virus; conditions: grouped by activity at 50, 5 and 0.5 μM
In short: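 Confluent monolayers were infected with HSV-1 or HSV-2 at MOI 0.1 in the presence of compound at 50 and 5 µM for 1 h at 37 °C. Compound was then re-added in DMEM/2% newborn calf serum for 23 h more. Yield was titred by plaque assay on Vero cells, with DMSO controls. EC50 values came from serial dilutions starting at 50 µM, fitted by non-linear regression.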

HSV-2 [5] = experiment: Combination of ACV and compound 118 against HSV-2 in Vero cells (plaque assay, qPCR, Chou-Talalay); format: cell-based, herpes simplex virus 2; conditions: constant ratios, MOI 0.1, 24 h, FIGS. 8A-8C
Protocol: After 24 h, the cultures were collected and divided into two aliquots. […] The area below the lines indicates synergism, and the area above indicates antagonism.

## Cc1cc(O)c(=O)c(O)cc1C(=O)c1ccc(-c2ccccc2)cc1 [Compound 118]
[1]
  CC50 at 24 h: 21000 nM
[2]
  Non-P450 turn-over: Potential
[2]; read-out: t ½
  half-life at 1 μM: 34 min
[2]; extraction ratio
  ER: 0.63
[2]; mouse, liver microsomes
  CLint scaled at 1 μM: 154 mL/min/kg
[2]; mouse, liver microsomes, read-out: CL ′hep
  predicted hepatic clearance at 1 μM: 57 mL/min/kg
[3]
  CC50 at 24 h: > 100000 nM
HSV-1; read-out: HSV-1 EC50
  EC50: 85 nM
HSV-1; read-out: HSV-1 Log suppression 5 μM
  log reduction at 5 µM: 5.14
HSV-1; read-out: HSV-1 Log suppression 50 μM
  log reduction at 50 µM: 6.27
HSV-2 [4]; 5 μM, laboratory strain, 24 hr, FIG. 4
  inhibition of wild-type HSV-2, in words: efficiently inhibited
HSV-2 [4]; Human alphaherpesvirus 2, Vero, 24 h, read-out: HSV-2 EC50
  EC50: 80 nM
HSV-2 [4]; Human alphaherpesvirus 2, Vero, 24 h, read-out: HSV-2 Log suppression 5 μM
  log reduction at 5 µM: 3.22
HSV-2 [4]; Human alphaherpesvirus 2, Vero, 24 h, read-out: HSV-2 Log suppression 50 μM
  log reduction at 50 µM: 5.56
HSV
  anti-HSV SAR group, in words: highly inhibitory at much lower concentrations; also recorded: fully inhibitory at 5 μM
HSV-2 [5]
  interaction with ACV on HSV-2 replication and DNA accumulation: synergistically inhibit
